Source: US20090053302A1, “CANCER TREATMENTS” (priority 2006, published 2009)

Assays:
[1] = Total platinum in rat plasma after i.p. injection (pharmacokinetics, atomic absorption); details: female, Wistar, in vivo, ip, 15 mg/kg
Protocol: For pharmacokinetic studies 20 Wistar female rats, 2-3 months of age were used of an average body weight of 150 g. […] Two animals per time point were used. […] Blood was collected in heparinized Eppendorf tubes and was centrifuged. Total platinum levels in plasma was determined using furnace Atomic Absorption (AA700 Perkin Elmer).
At various time points postinjection blood was drawn, plasma was isolated and total platinum levels were measured for pharmacokinetic studies.
This was calculated by linear regression analysis of the logarithmic plasma concentration-time curve by the formula Kel=[Ln(Cp1)−Ln(Cp2)]/(t2−t1) where t1 and t2 are the starting and ending time points of measurements and Cp1 and Cp2 the starting and ending concentrations of total platinum in plasma for t1 and t2, respectively.
This was calculated by the formula: t½=0.693 (1/Kel). 1/Kel is the mean residence time (MRT), the statistical moment analogy to half-life t½ (Gibaldi et al, 1982).

[2] = not given; remark: listed apart in the source
[3] = Toxicity of i.v. doses in mice
[4] = system: human breast cancers in mice; assay: Human breast cancer xenografts in mice, intravenous injections; details: 6 intravenous injections with 4 days intervals; Lipoxal 16 mg/Kg, oxaliplatin at its MTD
[5] = Phase I-II study of Lipoplatin combined with gemcitabine: toxicity, DLT, MTD; type: in vivo, human; details: combined with Lipoplatin 100 mg/m2, every two weeks
Protocol: Patients and Methods: The gemcitabine dose was kept standard at 1000 mg/m2 and the lipoplatin dose was escalated from 25 mg/m2 to 125 mg/m2. The treatment was administered to advanced pretreated pancreatic cancer patients who were refractory to previous chemotherapy which included gemcitabine.
Gemcitabine was given as a 60 min i.v. infusion in 500 ml normal saline on days 1 and 15 at a dose of 1000 mg/m2 and cycles were repeated every 4 weeks (28 days). The infusions on days 1 and 15 were considered to be 1 cycle. […] Prophylactic administration of recombinant human granulocyte colony-stimulating factor (rhG-CSF) was not allowed. In cases of grade 3 neutropenia, these patients would receive subsequent infusions of pegfilgrastim 6 mg, on the 6th or 7th day and treatment would be postponed for one week. Treatment was administered for at least three cycles or until disease progression. The study was a phase I/II cohort, dose escalation trial of Lipoplatin® and gemcitabine. Its aims were to determine the dose limiting toxicity (DLT) of the combination and to define the maximum tolerated dose (MTD) as a recommended dose for phase II and to collect preliminary data on the efficacy of the drug in pretreated patients with pancreatic cancer. […]

[6] = female, Wistar, rat, in vivo, ip, 15 mg/kg
[7] = rats i.p., 15 mg/Kg (estimation) (Lipoplatin 30, cisplatin 5 mg/Kg)
[8] = rats i.p., Lipoplatin 30, cisplatin 5 mg/Kg

SMILES: O=C1[O][Pt]2([NH]C3CCCCC3[NH2+]2)[O]C1=O [oxaliplatin, cis-[(1R,2 R)-1,2-cyclohexanediamine-N,N][oxalato(2-)-O,O] platinum]
- time post-injection at which total platinum in plasma reaches zero [1]: ~100 h
- final body weight at 7 days (150 g before study) (15 mg/Kg i.p.): 109 g
- weight loss of total body weight during 7 days (15 mg/kg i.p.): over 40 gr
- Weight of total animal organ: Heart (15 mg/kg i.p., 7.8 or 7 days): 0.523 g
- Weight of total animal organ: Kidney (15 mg/kg i.p., 7.8 or 7 days): 0.475 g
- Weight of total animal organ: Lung (15 mg/kg i.p., 7.8 or 7 days): 0.934 g
- Weight of total animal organ: Spleen (15 mg/kg i.p., 7.8 or 7 days): 0.188 g
- weight loss (30 mg/Kg i.p., 7 days post-treatment): 33%
- average weight after 7 days (from 150 g) (30 mg/Kg i.p., day 7): 100 g
- hepatic toxicity / nephrotoxicity (rats i.p.): absence of nephrotoxicity
- Kel, kidney [2, 6]: 0.002 h⁻¹
- time at which the early spleen maximum is reached [2, 6]: 15 to 20 min
- Cl, kidney ([2]; rat, in vivo, ip, 15 mg/kg): 0.01 h⁻¹
- outcome of mice injected with 5 mg/Kg ([3]; 5 mg/Kg): died of toxicity
- MTD ([3]; mouse, in vivo): 4 mg/kg
- effect on human breast cancers in mice [4]: only cause shrinkage, not disappearance

SMILES: Nc1ccn([C@@H]2O[C@H](CO)[C@@H](O)C2(F)F)c(=O)n1 [gemcitabine]
- MTD of gemcitabine in the combination [5]: 1000 mg/m2

SMILES: N.N.[Cl][Pt][Cl] [cisplatin, cis-PtCl2(NH3)2]
- maximum tolerated dose (rats i.p.): 5 mg/kg
- total platinum in liver from 24 to 150 h ([2]; rats i.p. 5 mg/Kg): 1
- time at which the liver level is attained ([2]; rats i.p., 15 mg/Kg (cisplatin 5 mg/Kg)): 20 min
- total platinum, Heart, 5 h [2, 7]: 0.2 mg Pt/g tissue
- total platinum, Kidney, 5 h [2, 7]: 6.8 mg Pt/g tissue
- total platinum, Liver, 5 h [2, 7]: 2.4 mg Pt/g tissue
- total platinum, Lung, 5 h [2, 7]: 0.7 mg Pt/g tissue
- total platinum, Spleen, 5 h [2, 7]: 1.2 mg Pt/g tissue
- total platinum, Brain, 5-7 days [2, 8]: 0 mg Pt/g tissue
- total platinum, Brain, 5 h [2, 8]: 0.1 mg Pt/g tissue
- total platinum, Brain, maximum (7-20 min) [2, 8]: 0.3 mg Pt/g tissue
